Data as given in patent publication US4230712A, “7-Methyl-8β-lower alkyl or 7-methyl-8-lower alkyl B/C cis or trans morphinan-6-one compounds and therapeutic method of treating pain employing them” (Miles Laboratories, Inc., priority 1978, dated 1980).
Counter-ions that a name gives are not always drawn. Like-named read-outs stand apart in the source and are kept apart here.

Legend:
[1] = tested on: mice; assay: acetic acid mouse writhing test (analgesic effect, s.c.); type: in vivo, male CD-1 mice; settings: for ED50: mouse acetic acid writhing, s.c., dose reducing the number of writhes by 50%, IA @ dose = inactive at that dose
Description: (A) Analgesic effects upon mice (acetic acid writhing test).
TEST A. ACETIC ACID MOUSE WRITHING TEST
The analgesic effects of test compounds were determined in mice by use of the acetic acid writhing test described by B. J. R. Whittle, Brit. J. Pharmacol., 22:246 (1964). In this test at least three groups of five male CD-1 mice (18-22 g) each were given subcutaneous doses of the test drug dissolved in either distilled water or distilled water acidified with HCl depending on the solubility of the compound. In all cases, 0.4 milliliter of a 0.5% V/V acetic acid in distilled water solution was administered intraperitoneally 15 minutes post drug. The number of writhes in a 20 min. interval beginning 5 minutes after the acetic acid injection were determined and compared with the number of writhes in control groups which had received only acetic acid.
Percent inhibition of writhing was calculated as: [formula]
The ED50 dose, i.e., the dose required to reduce the number of writhes by 50%, was determined graphically from a plot of % inhibition as a probit versus log dose. Confidence limits of 95% were calculated on the basis of those results falling in the range 16-84% inhibition. See Litchfield, J. T. and Wilcoxon, F., J. Pharmacol. Exp. Ther., 96, 99-113, (1949).

[2] = charcoal meal test with attempted naloxone reversal; type: in vivo
[3] = tested on: rats; assay: narcotic antagonist activity, modified rat tail flick test against morphine; type: in vivo, male albino Wistar rats; design: AD50: unit not given here; settings: for AD50: rat tail flick, dose inhibiting the morphine (ED80 dose s.c.) effect by 50%, IA @ dose = inactive at that dose
Description: (B) Narcotic antagonist activity in rats (modified rat tail flick test).
TEST B. EVALUATION OF NARCOTIC ANTAGONIST ACTIVITY
The narcotic antagonist effects of test compounds were determined by a modification of the rat tail flick procedure of Harris and Pierson (J. Pharmacol. Exp. Ther. 143:141 [1964]).
Male albino Wistar rats (100-120 g) were used for this study. A rat's tail is so placed so as to cover a photocell. Heat is applied by a lamp in a reflector with a timer being connected to the lamp and photocell so that the timer goes on when the light is turned on and is turned off when the photocell is uncovered. A rheostat, incorporated into a heating lamp is used to adjust the intensity of the light falling on the tail of the rat such that the rat's control reaction time is from two to four seconds. Animals with a control reaction time outside this range are rejected. The rheostat adjustment is made only if a significant proportion (more than 2 out of every 10 rats) of the reaction times are outside the range of two to four seconds. Groups of five rats were used each time, and two control times were determined at 60 and 30 minutes prior to subcutaneous injection of the drug.
Thirty minutes after the last control run the test drug was given intraperitoneally. This was followed ten minutes later by an ED80 dose of morphine subcutaneously. The animals were retested at 20 minutes after the morphine injection. Control animals were given vehicle and morphine only. The data were calculated as follows: [formula]
The data were plotted on log-probit paper and AD50 values, i.e., the dose required to inhibit the morphine effect by 50% within 95% confidence limits, were determined by the method of Litchfield and Wilcoxon.

SMILES	ED50 ([1]; sc, read-out: ED50) [mg/kg]	action in charcoal meal test upon attempted naloxone reversal ([2]; attempted reversal with naloxone, Hydrochloride)	duration of action suggested by charcoal meal test ([2]; inferred from novel action upon attempted naloxone reversal)	AD50 [3]	analgesic activity ([1]; in words)	ED50 [1]	narcotic antagonist activity ([3]; in words)
C[C@H]1C[C@H]2[C@H]3Cc4ccc(O)cc4[C@@]2(CCN3CC2CC2)CC1=O.Cl [TR-5177, 17-Cyclopropylmethyl-3-hydroxy-7α-methylmorphinan-6-one Hydrochloride]	0.87	novel action in charcoal meal test upon attempted naloxone reversal	may have a longer duration of action than would be expected	5.2			
CC[C@H]1[C@@H]2[C@H]3Cc4ccc(O)cc4[C@@]2(CCN3CC2CCC2)CC(=O)[C@@H]1C [TR-5370, 17-Cyclobutylmethyl-8α-ethyl-3-hydroxy-7β-methyl-isomorphinan-6-one Hydrochloride]				> 10	essentially inactive	IA @ 10	essentially inactive
